Assay results: patent US20130184222A1, “[…] ACTIVE COMPOSITIONS AND THEIR METHODS OF USE” (AGIOS PHARMACEUTICALS, INC, priority 2010, published 2013)

Each compound was assayed against IDH1 R132H (Homo sapiens, UniProt O75874, R132H) (assay: In vitro assay for IDH1 R132H inhibitors (NADPH/aKG, resazurin detection)). Settings: Table 4A; 0.2 μg/ml IDH1 R132H, 50 minutes at room temperature; read-out: IC50 (uM), IDH1 R132H Inhibition.
Type: biochemical
Method: Assays were conducted in a volume of 76 μl assay buffer (150 mM NaCl, 10 mM MgCl2, 20 mM Tris pH 7.5, 0.03% bovine serum albumin) as follows in a standard 384-well plate: To 25 ul of substrate mix (8 uM NADPH, 2 mM aKG), 1 μl of test compound was added in DMSO. The plate was centrifuged briefly, and then 25 μl of enzyme mix was added (0.2 μg/ml IDH1 R132H) followed by a brief centrifugation and shake at 100 RPM. The reaction was incubated for 50 minutes at room temperature, then 25 μl of detection mix (30 μM resazurin, […]) was added and the mixture further incubated for 5 minutes at room temperature. The conversion of resazurin to resorufin was detected by fluorescent spectroscopy at Ex544 Em590 c/o 590.
The compounds of Formula I set forth in Table 1 and the compounds set forth in Table 2 were tested in this assay and the results set forth below in Table 4A and 4B.

IDH1 R132H, sequence (O75874 whole entry R132H): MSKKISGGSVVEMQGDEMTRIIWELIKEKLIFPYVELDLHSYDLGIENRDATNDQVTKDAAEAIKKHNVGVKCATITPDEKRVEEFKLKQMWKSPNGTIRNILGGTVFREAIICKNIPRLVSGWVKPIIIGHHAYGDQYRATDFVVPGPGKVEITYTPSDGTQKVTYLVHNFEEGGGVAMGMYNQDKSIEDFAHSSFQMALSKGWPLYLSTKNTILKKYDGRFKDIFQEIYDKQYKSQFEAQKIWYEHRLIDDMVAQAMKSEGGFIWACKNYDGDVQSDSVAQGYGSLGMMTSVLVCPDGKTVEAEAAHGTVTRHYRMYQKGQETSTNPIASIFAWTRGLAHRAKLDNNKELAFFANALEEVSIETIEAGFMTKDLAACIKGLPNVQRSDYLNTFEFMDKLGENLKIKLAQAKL

SMILES	IC50
O=C(NC1CCCCC1)C(c1ccc(Br)o1)N(C(=O)Cc1cccs1)c1cccc(F)c1 (stereo not drawn) [Compound 87]	0.1 to 1 µM
O=C(NC1CCCCC1)C(c1ccc(-n2ccnc2)cc1)N(C(=O)Cc1cccs1)c1cccc(F)c1 (stereo not drawn) [Compound 83]	10 to 100 µM
COc1cccc(N(C(=O)Cc2cccs2)C(C(=O)NC2CCCC2)c2ccccc2Cl)c1 (stereo not drawn) [Compound 3]	0.1 to 1 µM
Cc1ccccc1N(C(=O)Cc1cccs1)C(C(=O)NC1CCCCC1)c1cccc(F)c1 (stereo not drawn) [Compound 13]	0.1 to 1 µM
O=C(NC1CCCCC1)C(c1ccccc1)N(C(=O)c1ccccn1)c1ccccc1F (stereo not drawn) [Compound 58]	1 to 10 µM
Cc1ccccc1[C@@H](C(=O)NC1CCCCC1)N(C(=O)Cc1cccs1)c1cccc(F)c1 (single isomer, unassigned) [Compound 54]	≤ 0.1 µM
Cc1ccccc1C(C(=O)NC1CCCCC1)N(C(=O)CNS(=O)(=O)c1ccccc1)c1cccc(F)c1 (stereo not drawn) [Compound 29]	0.1 to 1 µM
Cc1ccccc1C(C(=O)NC1CCCCC1)N(C(=O)Cc1cccs1)c1cccc(Cl)c1Cl (stereo not drawn) [Compound 97]	1 to 10 µM
O=C(NC1CCCCC1)C(C1CCCC1)N(C(=O)Cc1cccs1)c1cccc(F)c1 (stereo not drawn) [Compound 61]	1 to 10 µM
O=C(Cc1cccs1)N(c1cccc(F)c1)C1(C(=O)NC2CCCC2)CCCC1 [Compound 23]	10 to 100 µM
N#Cc1ccc(C(C(=O)NC2CCCC2)N(C(=O)Cc2cccs2)c2cccc(F)c2)cc1 (stereo not drawn) [Compound 25]	≥ 100 µM
O=C(NC1CCCCC1)C(c1ccccc1Cl)N(C(=O)c1ccccn1)c1ccccc1F (stereo not drawn) [Compound 57]	1 to 10 µM
Cc1ccc(N(C(=O)c2ccccn2)C(C(=O)NC2CCCCC2)c2ccccc2)cc1F (stereo not drawn) [Compound 7]	1 to 10 µM
CC(C)(C)NC(=O)C(c1ccccc1)N(C(=O)Cc1cccs1)c1ccccc1 (stereo not drawn) [Compound 11]	1 to 10 µM
O=C(NC1CCCCC1)C(c1cccnc1)N(C(=O)Cc1cccs1)c1cccc(F)c1 (stereo not drawn) [Compound 90]	1 to 10 µM
O=C(NC1CCCCC1)C(c1ccccc1)N(C(=O)Cc1cccs1)c1cccc(F)c1 (stereo not drawn) [Compound 30]	0.1 to 1 µM
O=C(NC1CCCCC1)C(c1ccccc1F)N(C(=O)c1ccccn1)c1cccc(F)c1 (stereo not drawn) [Compound 33]	0.1 to 1 µM
O=C(NC1CCCCC1)C(c1ccccc1Cl)N(C(=O)c1ccccn1)c1cccc(F)c1 (stereo not drawn) [Compound 56]	0.1 to 1 µM

SMILES	IC50
CCC(C(=O)NC1CCCC1)N(C(=O)Cc1cccs1)c1cccc(F)c1 (stereo not drawn) [Compound 18]	≥ 100 µM
COc1cccc(N(C(=O)Cc2cccs2)C(C(=O)NC2CCCC2)c2ccccc2)c1 (stereo not drawn) [Compound 1]	0.1 to 1 µM
O=C(NC1CCCCC1)C(c1ccc(F)cc1)N(C(=O)Cc1cccs1)c1cccc(F)c1 (stereo not drawn) [Compound 50]	0.1 to 1 µM
O=C(NC1CCCC1)C(c1ccccc1F)N(C(=O)Cc1cccs1)c1ccccc1F (stereo not drawn) [Compound 47]	0.1 to 1 µM
O=C(NC1CCCCC1)C(c1ccncc1)N(C(=O)Cc1cccs1)c1cccc(F)c1 (stereo not drawn) [Compound 76]	1 to 10 µM
Cc1ccccc1C(C(=O)NC1CCCC1)N(C(=O)Cc1cccs1)c1cccc(F)c1 (stereo not drawn) [Compound 8]	≤ 0.1 µM
O=C(NC1CCCCC1)C(c1ccccc1)N(C(=O)Cc1cccs1)c1ccccc1F (stereo not drawn) [Compound 36]	0.1 to 1 µM
Cc1ccccc1C(C(=O)NC1CCCCC1)N(C(=O)Cc1cccs1)C(C)(C)C (stereo not drawn) [Compound 69]	≥ 100 µM
O=C(NC1CCCCC1)C(c1ccc(C(F)(F)F)cc1)N(C(=O)Cc1cccs1)c1cccc(F)c1 (stereo not drawn) [Compound 84]	≥ 100 µM
O=C(NC1CCCC1)C(c1ccccc1Cl)N(C(=O)Cc1cccs1)c1cccc(F)c1 (stereo not drawn) [Compound 44]	≤ 0.1 µM
Cc1ccccc1C(C(=O)NC1CCCCC1)N(C(=O)Cc1cccs1)c1ccccc1F (stereo not drawn) [Compound 39]	0.1 to 1 µM
O=C(NC1CCCCC1)C(c1ccccc1Cl)N(C(=O)Cc1cccs1)c1cccc(F)c1 (stereo not drawn) [Compound 31]	≤ 0.1 µM
Cc1cccc(C(C(=O)NC2CCCCC2)N(C(=O)Cc2cccs2)c2cccc(F)c2)c1 (stereo not drawn) [Compound 89]	0.1 to 1 µM
O=C(Cc1cccs1)N(c1cccc(F)c1)C1(C(=O)NC2CCCC2)CCCCCC1 [Compound 74]	1 to 10 µM
O=C(NC1CCCC1)C(c1ccc(C(F)(F)F)cc1)N(C(=O)Cc1cccs1)c1cccc(F)c1 (stereo not drawn) [Compound 27]	≥ 100 µM
O=C(NC1CCCCC1)C(c1cccs1)N(C(=O)Cc1cccs1)c1cccc(F)c1 (stereo not drawn) [Compound 94]	0.1 to 1 µM
O=C(NC1CCCCC1)C(c1ccccc1F)N(C(=O)Cc1cccs1)c1cccc(F)c1 (stereo not drawn) [Compound 34]	≤ 0.1 µM
O=C(NC1CCCCC1)C(c1ccccc1F)N(Cc1cccs1)C(=O)Cc1cccs1 (stereo not drawn) [Compound 38]	1 to 10 µM

Same assay, conditions: Table 4B; 0.2 μg/ml IDH1 R132H, 50 minutes at room temperature; read-out: IC50, IDH1 R132H Inhibition

SMILES	IC50
Cc1ccccc1C(C(=O)NC1CCCCC1)N(C(=O)CNc1cccc(F)c1)c1cccc(F)c1 (stereo not drawn) [Compound 133]	0.1 to 1 µM
Cc1ccccc1C(C(=O)NC1CCCCC1)N(C(=O)Cc1cccs1)c1ccc(Cl)cc1 (stereo not drawn) [Compound 148]	0.1 to 1 µM
O=C(NC1CCCCC1)C(c1ccccc1Br)N(C(=O)Cc1cccs1)c1cccc(F)c1 (stereo not drawn) [Compound 104]	≤ 0.1 µM
Cc1ccc(N(C(=O)Cc2cccs2)C(C(=O)NC2CCCCC2)c2ccccc2C)cc1 (stereo not drawn) [Compound 144]	0.1 to 1 µM
Cc1ccccc1C(C(=O)NC1CCCCC1)N(C(=O)CNC(=O)OC(C)(C)C)c1cccc(F)c1 (stereo not drawn) [Compound 368]	0.1 to 1 µM
N#Cc1ncn(CC(=O)N(c2cccc(F)c2)C(C(=O)NC2CCCCC2)c2ccccc2Cl)c1C#N (stereo not drawn) [Compound 384]	0.1 to 1 µM
Cc1ccccc1C(C(=O)NC1CCCCC1)N(C(=O)CNC1CCCC1)c1cccc(F)c1 (stereo not drawn) [Compound 121]	0.1 to 1 µM
COC(=O)N1CCC[C@@H]1C(=O)N(c1cccc(F)c1)[C@H](C(=O)NC1CCCCC1)c1ccccc1C [Compound 355]	0.1 to 1 µM
Cc1ccccc1C(C(=O)NC1CCCCC1)N(C(=O)c1c(C)noc1C)c1cccc(F)c1 (stereo not drawn) [Compound 139]	0.1 to 1 µM
Cc1ccccc1C(C(=O)NC1CCCCC1)N(C(=O)Cn1ccnc1)c1cccc(F)c1 (stereo not drawn) [Compound 156]	0.1 to 1 µM
Cc1ccccc1C(C(=O)NC1CCCCC1)N(Cc1cccs1)C(=O)Cn1nnc2ccccc21 (stereo not drawn) [Compound 157]	0.1 to 1 µM
CC(=O)c1cccc(N(C(=O)Cc2cccs2)C(C(=O)NC2CCCCC2)c2ccccc2C)c1 (stereo not drawn) [Compound 131]	0.1 to 1 µM
CCC(=O)Nc1cccc(N(C(=O)Cc2cccs2)C(C(=O)NC2CCCCC2)c2ccccc2C)c1 (stereo not drawn) [Compound 112]	0.1 to 1 µM
Cc1ccccc1[C@@H](C(=O)NC1CCCCC1)N(C(=O)[C@H]1CCCCN1C(=O)N(C)C)c1cccc(F)c1 [Compound 365]	0.1 to 1 µM
Cc1ccccc1NC(=O)C(c1ccccc1C)N(C(=O)Cc1cccs1)c1cccc(F)c1 (stereo not drawn) [Compound 110]	0.1 to 1 µM
Cc1ccccc1C(C(=O)NC1CCCCC1)N(C(=O)COc1ccccc1)c1cccc(F)c1 (stereo not drawn) [Compound 136]	0.1 to 1 µM
O=C(NC1CCCCC1)C(c1cccc(Br)c1)N(C(=O)Cc1cccs1)c1cccc(F)c1 (stereo not drawn) [Compound 115]	0.1 to 1 µM
Cc1ccccc1C(C(=O)NC1CCCCC1)N(C(=O)Cc1cccs1)c1cccc(Br)c1 (stereo not drawn) [Compound 146]	0.1 to 1 µM

SMILES	IC50
O=C(NC1CCCCC1)C(c1cccc(Cl)c1)N(C(=O)Cc1cccs1)c1cccc(F)c1 (stereo not drawn) [Compound 107]	0.1 to 1 µM
Cc1ccccc1C(C(=O)NC1CCCCC1)N(C(=O)Oc1ccccc1)c1ccccc1 (stereo not drawn) [Compound 392]	0.1 to 1 µM
O=C(NC1CCCCC1)C(c1cc(F)c(F)cc1F)N(C(=O)Cc1cccs1)c1cccc(F)c1 (stereo not drawn) [Compound 106]	0.1 to 1 µM
Cc1cccc(C)c1C(C(=O)NC1CCCCC1)N(C(=O)Cc1cccs1)c1cccc(F)c1 (stereo not drawn) [Compound 130]	0.1 to 1 µM
COc1cccc(N(C(=O)Cc2cccs2)C(C(=O)NC2CCCCC2)c2ccccc2C)c1 (stereo not drawn) [Compound 124]	0.1 to 1 µM
Cc1ccccc1C(C(=O)NC1CCCCC1)N(Cc1cccs1)C(=O)CNCc1ccncc1 (stereo not drawn) [Compound 169]	0.1 to 1 µM
COC(=O)NCC(=O)N(Cc1cccs1)C(C(=O)NC1CCCCC1)c1ccccc1C (stereo not drawn) [Compound 372]	0.1 to 1 µM
Cc1ccccc1C(C(=O)NC1CCCCC1)N(C(=O)Cc1cccs1)c1cccc(N2CCOCC2)c1 (stereo not drawn) [Compound 123]	0.1 to 1 µM
O=C(NC1CCCCC1)C(c1cc(F)ccc1Br)N(C(=O)Cc1cccs1)c1cccc(F)c1 (stereo not drawn) [Compound 129]	0.1 to 1 µM
Cc1ccccc1C(C(=O)NC(C)(C)C)N(C(=O)Cc1cccs1)c1cccc(F)c1 (stereo not drawn) [Compound 109]	0.1 to 1 µM
Cc1ccccc1C(C(=O)NC1CCCCC1)N(C(=O)c1cccs1)c1cccc(F)c1 (stereo not drawn) [Compound 138]	0.1 to 1 µM
Cc1ccccc1C(C(=O)NC1CCCCC1)N(C(=O)CCl)c1cccc(F)c1 (stereo not drawn) [Compound 118]	0.1 to 1 µM
COC(=O)NCC(=O)N(c1ccc(F)c(F)c1)C(C(=O)NC1CCCCC1)c1ccccc1C (stereo not drawn) [Compound 358]	0.1 to 1 µM
Cc1ccc(F)c(C(C(=O)NC2CCCCC2)N(C(=O)Cc2cccs2)c2cccc(F)c2)c1 (stereo not drawn) [Compound 127]	0.1 to 1 µM
Cc1ccccc1C(C(=O)NC1CCCCC1)N(C(=O)Cc1ccsc1)c1cccc(F)c1 (stereo not drawn) [Compound 150]	≤ 0.1 µM
COc1ccc(F)c(C(C(=O)NC2CCCCC2)N(C(=O)Cc2cccs2)c2cccc(F)c2)c1 (stereo not drawn) [Compound 128]	0.1 to 1 µM
Cc1ccccc1C(C(=O)NC1CCCCC1)N(C(=O)c1ccc2c(c1)OCO2)c1cccc(F)c1 (stereo not drawn) [Compound 132]	0.1 to 1 µM
Cc1ccccc1[C@@H](C(=O)NC1CCCCC1)N(C(=O)[C@H]1CCCN1)c1cccc(F)c1 [Compound 376]	0.1 to 1 µM
